For this assay, the system named is 379773-124-R-J2-PDC spheroid viability. Kind of assay: Anticancer human tumor 379773-124-R-J2-PDC patient-derived endometrial carcinoma cell line growth inhibition [POLQ]. The note with it: spheroids with HUVEC and MSC; for viability, T/C: stronger effect = lower value. How it is done:
Multicellular complex tumor spheroid response to Polymerase (POL) inhibitors (novobiocin, ART-558, RP6685) in combination with a variety of drugs and investigational agents in selected tumor cell lines
The POL inhibitors (novobiocin, ART-558, and RP6685) were evaluated both individually and in combination with standard of care and investigational anticancer small molecules within a complex spheroid model of solid tumors. . Complex spheroids include a stromal component modeled by human endothelial cells (HUVEC) and fibroblasts modeled by human mesenchymal stem cells (MSCs). The concentration ranges selected for each drug and investigational agent were based upon clinically achievable concentrations if the clinical Cmax of the agent was known.
Compounds. The drugs and investigational agents: novobiocin (NSC847541), ART-558 (NSC835418), RP-6685 (NSC848927), peposertib (NSC802822), ceralasertib (NSC780249), elimusertib (NSC800525), camonsertib (NSC841442), AZD-1390 (NSC803789), olaparib (NSC753686), talazoparib (NSC767125), rucaparib (NSC756644), sotorasib (NSC818433), MRTX-1133 (NSC836407), SN-38 (NSC673596), topotecan (NSC609699), epotoside (NSC141540), doxorubicin (NSC123127), gemcitabine (NSC613327), 5-fluorouracil (NSC19893), paclitaxel (NSC125973), vemurafenib (NSC761431), MSA-2 (NSC828583), SN-011 (NSC837082), adavosertib (NSC754352), prexasertib (NSC758257), carboplatin (NSC241240) and oxaliplatin (NSC266046), were obtained from the National Cancer Institute (NCI) Developmental Therapeutics Program Chemical Repository (21). The FDA-approved anticancer drug set is available from the Developmental Therapeutics Program at https://dtp.cancer.gov/organization/dscb/obtaining/. […] The stock solutions were prepared in dimethyl sulfoxide (DMSO, Sigma-Aldrich, St. Louis, MO, cat. D2650), except for the platinum compounds which were prepared in saline (Quality Biological, Gaithersburg, MD, cat. 114-055-101), at 800-fold the tested concentration and stored at -70 degrees C prior to their use. All drugs and investigational agents were tested over a range starting from a high concentration at or near the clinical Cmax and decreasing in half-log increments. If the clinical Cmax for an agent had not been determined, the highest concentration tested was 10 microM, except for SN-38, which was tested at a high concentration of 1 microM.
Cell Culture. All cells were maintained in an incubator at 37 degrees C and 5% CO2 with 95% humidity. The PDC lines were cultured according to standard operating procedures established by the NCI PDMR (https://pdmr.cancer.gov). Table 3 of the manuscript, lists the cell lines along with the number of the three cell types plated to form the mct-spheroids and media for tumor cell growth. After thawing, all PDC lines, except 997537-175-T-J1-PDC and 415267-285-R-J2-PDC, were cultured in Matrigel-coated flasks prepared with a working solution of 1X Ham's F-12 nutrient mix, without supplementation (Thermo Fisher Scientific, cat. 11765054), 100 U/mL penicillin-streptomycin (Thermo Fisher Scientific, cat. 15140122), and 2.5% Matrigel (Corning Inc., Corning, NY, cat. 354248) for the first three passages. The two PDC lines 997537-175-T-J1-PDC and 415267-285-R-J2-PDC were cultured on uncoated flasks. The 857933-349-R-J2-PDC line was cultured in 6C/Colon 1B media containing advanced DMEM/F-12 (Thermo Fisher Scientific, cat. 12634028), 10 mM HEPES (Thermo Fisher Scientific, cat. 15630080), 1X GlutaMAX supplement (Thermo Fisher Scientific, cat. 35050061), 0.1 mg/mL primocin (InvivoGen, San Diego, CA, cat. ant-pm-2), 10% defined fetal bovine serum, heat inactivated (HyClone Laboratories Inc., Logan, UT, cat. SH30070.03HI), 50% L-WRN conditioned media (ATCC, cat. CRL-3276), 1.25 mM N-Acetyl-L-cysteine (Sigma-Aldrich, cat. A9165), 10 mM nicotinamide (Sigma-Aldrich, cat. N0636), 1X B-27 supplement (Thermo Fisher Scientific, cat. 17504044), 1X N-2 supplement (Thermo Fisher Scientific, cat. […]

The structures appear in SMILES notation. Several values for one entry are separate records, joined by “and”; a condition that tells them apart may be missing. Identical values can stand only once.
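Further: spheroids exposed to drugs for seven days before readout.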
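Wherever viability, T/C is given: percent viability relative to DMSO vehicle control taken as 100%.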

In general, IC50 refers to the point on the concentration scale where inhibition reaches its midpoint. Broadly, the viability, T/C is the ratio of treated to control. With `Cn1ncnc1[C@H]1c2n[nH]c(=O)c3cc(F)cc(c23)N[C@@H]1c1ccc(F)cc1` + Nc1ccc(C#CCN(C(=O)Cc2ncc(C(F)(F)F)cc2C(F)(F)F)c2ccc(F)cc2)nn1, the IC50 (curve of first compound, second compound 0.0316 µM) was greater than 100 nM; the IC50 (curve of first compound, second compound 0.1 µM) was greater than 100 nM; the IC50 (curve of first compound, second compound 0.316 µM) was greater than 100 nM; the IC50 (curve of first compound, second compound 1 µM) is greater than 100 nM; the IC50 (curve of first compound, second compound 3.16 µM) was greater than 100 nM; the IC50 (curve of first compound, second compound 10 µM) is greater than 100 nM. The viability, T/C was 103% (second compound 0.0316 µM, first compound 0.000316 µM); 86.2% (second compound 0.0316 µM, first compound 0.001 µM); 94% (second compound 0.0316 µM, first compound 0.00316 µM); 85.8% (second compound 0.0316 µM, first compound 0.01 µM); 68.6% (second compound 0.0316 µM, first compound 0.0316 µM); 53.7% (second compound 0.0316 µM, first compound 0.1 µM). The viability, T/C runs as follows: (second compound 0.1 µM, first compound 0.000316 µM) 89.8%; (second compound 0.1 µM, first compound 0.001 µM) 94.6%; (second compound 0.1 µM, first compound 0.00316 µM) 99.3%; (second compound 0.1 µM, first compound 0.01 µM) 91.9%; (second compound 0.1 µM, first compound 0.0316 µM) 79.1%; (second compound 0.1 µM, first compound 0.1 µM) 55.8%. Further, the viability, T/C is, setting by setting: (second compound 0.316 µM, first compound 0.000316 µM) 100%; (second compound 0.316 µM, first compound 0.001 µM) 102%; (second compound 0.316 µM, first compound 0.00316 µM) 93.6%; (second compound 0.316 µM, first compound 0.01 µM) 86.3%; (second compound 0.316 µM, first compound 0.0316 µM) 72.5%; (second compound 0.316 µM, first compound 0.1 µM) 64.2%. Also, the viability, T/C is 97.7% (second compound 1 µM, first compound 0.000316 µM); 90.1% (second compound 1 µM, first compound 0.001 µM); 99.1% (second compound 1 µM, first compound 0.00316 µM); 86.6% (second compound 1 µM, first compound 0.01 µM); 80.4% (second compound 1 µM, first compound 0.0316 µM); 55.1% (second compound 1 µM, first compound 0.1 µM). Further, the viability, T/C (second compound 3.16 µM, first compound 0.000316 µM) was 113%; the viability, T/C (second compound 3.16 µM, first compound 0.001 µM) was 91.5%; the viability, T/C (second compound 3.16 µM, first compound 0.00316 µM) was 98%; the viability, T/C (second compound 3.16 µM, first compound 0.01 µM) is 102%; the viability, T/C (second compound 3.16 µM, first compound 0.0316 µM) is 67.5%; the viability, T/C (second compound 3.16 µM, first compound 0.1 µM) is 58.2%. The viability, T/C is 87.7% (second compound 10 µM, first compound 0.000316 µM); 90.6% (second compound 10 µM, first compound 0.001 µM); 86.3% (second compound 10 µM, first compound 0.00316 µM); 84% (second compound 10 µM, first compound 0.01 µM); 78.8% (second compound 10 µM, first compound 0.0316 µM); 56.5% (second compound 10 µM, first compound 0.1 µM).

With `C#Cc1c(F)ccc2cc(O)cc(-c3ncc4c(N5CC6CCC(C5)N6)nc(OCC56CCCN5CC(F)C6)nc4c3F)c12` (configuration not stated), the viability, T/C was 89.7% and 98.6% and 95.6% (compound 0.0316 µM); 75.8% and 86.8% and 84.9% (compound 0.1 µM); 76.9% and 105% and 79.6% (compound 0.316 µM); 82.7% and 98.4% and 90.6% (compound 1 µM); 87.1% and 98.4% and 87.7% (compound 3.16 µM); 81.7% and 93% and 90.7% (compound 10 µM). The IC50 (curve of compound) was greater than 10000 nM.

Turning to `C=CCn1c(=O)c2cnc(Nc3ccc(N4CCN(C)CC4)cc3)nc2n1-c1cccc(C(C)(C)O)n1`, the viability, T/C is 95.2% and 88.4% and 90.7% (compound 0.00316 µM); 83.8% and 82.6% and 88.3% (compound 0.01 µM); 86.5% and 84.1% and 94.8% (compound 0.0316 µM); 91.2% and 98.4% and 89.9% (compound 0.1 µM); 67.7% and 74.7% and 79.6% (compound 0.316 µM); 2.93% and 2.98% and 6.11% (compound 1 µM). Moreover, the IC50 (curve of compound) is 434 nM and 470 nM and 503 nM.

With `COc1cc(C2c3cc4c(cc3C(OC3OC5COC(C)OC5C(O)C3O)C3COC(=O)C23)OCO4)cc(OC)c1O` (configuration not stated), the viability, T/C is, setting by setting: (compound 0.0316 µM) 84.9% and 99% and 87%; (compound 0.1 µM) 86.8% and 96.4% and 75.6%; (compound 0.316 µM) 89.5% and 90% and 75.2%; (compound 1 µM) 64.8% and 72.1% and 65%; (compound 3.16 µM) 14.7% and 19.1% and 14.3%; (compound 10 µM) 10.1% (2×) and 14.7%. Also, where the note is “curve of compound”, the 50% inhibitory concentration (IC50) is 1400 nM and 1620 nM.

Take `CC(C)n1c(=O)n(C)c2cnc3cc(F)c(-c4ccc(OCCCN5CCCCC5)nc4)cc3c21`: the viability, T/C runs as follows: (compound 0.0316 µM) 77.5% and 102% and 83.2%; (compound 0.1 µM) 79.5% and 84.1% and 87.8%; (compound 0.316 µM) 78.7% and 88.7% and 68%; (compound 1 µM) 76.8% and 87.2% and 74.2%; (compound 3.16 µM) 80% and 93.2% and 82.2%; (compound 10 µM) 53.6% and 72.2% and 62.8%. Moreover, the IC50 (curve of compound) was greater than 10000 nM.

Regarding `CC1COCCN1c1cc(-c2ccnn2C)c2ccnc(-c3ccn[nH]3)c2n1` (configuration not stated), the viability, T/C was 75.5% and 78.8% and 88.4% (compound 0.0316 µM); 53.1% and 47.6% and 54.7% (compound 0.1 µM); 11.6% and 8.88% and 12.7% (compound 0.316 µM); 8.44% and 8.27% and 10.5% (compound 1 µM); 10.4% and 10.8% and 12.3% (compound 3.16 µM); 5.02% and 6.19% and 8.08% (compound 10 µM). In addition, the IC50 (curve of compound) is 109 nM and 91.5 nM and 114 nM.

Source of the values: PubChem BioAssay AID1963848 (Molecular Pharmacology Branch, DTP, NCI, 2024).
